System: Plasmopara viticola
Assay: Test against downy mildew of grapevine (preventive action)
Assay type: in vivo, Plasmopara viticola on grapevine plants (Chardonnay variety)
Details: alone
Source text: In the compositions according to the invention, the compound (I)/compound (II) ratio is advantageously chosen so as to produce a synergistic effect. The term “synergistic effect” especially means the effect defined by S. R. Colby in an article entitled “Calcul des responses synergiques et antagonistes des combinaisons herbicides [Calculation of the synergistic and antagonist responses of herbicidal combinations]”, Weeds, (1967), 15, pages 20–22.
[formula] in which E represents the expected percentage of inhibition of the disease for the combination of the two fungicides at defined doses (for example equal to x and y, respectively), X is the percentage of inhibition observed for the disease by compound (I) at a defined dose (equal to x), Y is the percentage of inhibition observed for the disease by compound (II) at a defined dose (equal to y). When the percentage of inhibition observed for the combination is greater than E, there is a synergistic effect.
Test of a composition against downy mildew of grapevine (Plasmopara viticola; preventive action):
Grapevine plants (Chardonnay variety) are grown on sandy soil in plastic pots, with one plant per pot. The two-month-old plants (6 to 7 leaves developed) are sprayed with compound (I) and compound (II), either alone or as a mixture.
The fungicidal active materials, either alone or as a mixture, are applied at a rate of 500 liters/ha.
The compound (I)/compound (II) ratios studied are 1/10, 1/15 and 1/20.
Three days after the treatment, each plant is inoculated by spraying with an aqueous suspension of Plasmopara viticola spores obtained from contaminated leaves. The spore concentration is about 100 000 units per ml.
After contamination, the plants are incubated for two days at 18° C. under a saturated atmosphere, and then for 5 days at about 20° C. with a relative humidity of 90–100%.
Seven days after the contamination, the symptoms are evaluated in terms of extent of surface area on the underside of the leaves that are infected, relative to the untreated but contaminated plants.
The efficacy of the treatment is calculated using the Abbott formula below: […]
The concentrations of the fungicides alone or as a mixture giving 50%, 70% or 90% efficacy for each component, in the appropriate test, are determined on the basis of the model of the dose/response sigmoid curve and their corresponding confidence intervals. The results are analysed using the Tammes or Colby model.

Row | SMILES | % Efficacy (70 mg/l) [%] | % Efficacy (105 mg/l) [%] | % Efficacy (140 mg/l) [%] | % Efficacy (700 mg/l) [%] | % Efficacy (1050 mg/l) [%] | % Efficacy (1400 mg/l) [%] | % Efficacy (100 mg/l) [%] | % Efficacy (150 mg/l) [%] | % Efficacy (200 mg/l) [%] | % Efficacy (1000 mg/l) [%] | % Efficacy (1500 mg/l) [%] | % Efficacy (2000 mg/l) [%] | % Efficacy (10 mg/l, preventive, 7 days after contamination) [%]
1 | OP(O)O [Compound (IIa), phosphorous acid] | 0 | 0 | 0 | 4 | 50 | 52 |  |  |  |  |  |  | 
2 | CCO[PH](=O)O.[Al] [Compound (IIb), aluminium ethyl hydrogen phosphonate, reference compound] |  |  |  |  |  |  | 0 | 0 | 0 | 46 | 60 | 81 | 
3 | O=C(NCc1ncc(C(F)(F)F)cc1Cl)c1c(Cl)cccc1Cl [Compound (Ia), 2,6-dichloro-N-{[3-chloro-5-(tri-fluoromethyl)-2-pyridinyl]methyl}benzamide] |  |  |  |  |  |  | 100 |  |  |  |  |  | 77
